From patent publication US8673942B2, “Fused ring compounds and use thereof” (Takeda Pharmaceutical Company Limited, priority 2008, dated 2014)

Columns and labels:
[1] = target: T1, human liver GK (GST-hLGK1) (Homo sapiens, UniProt P35557); experiment: Measurement of GK activation value; type: biochemical; settings: GST-hLGK1 6 μg/mL, 5 mmol/L D-glucose, 50 μmol/L Mant-ATP, 60 min at 37° C.; concentration at midpoint between maximum activity value and control activity value
T1 construct: with a BamHI site added to immediately before the initiation codon; made in house; host or cells: Escherichia coli BL21 (Stratagene), plasmid pGEX6P-2/hLGK1
T1 sequence (P35557 1-464 isoform P35557-3): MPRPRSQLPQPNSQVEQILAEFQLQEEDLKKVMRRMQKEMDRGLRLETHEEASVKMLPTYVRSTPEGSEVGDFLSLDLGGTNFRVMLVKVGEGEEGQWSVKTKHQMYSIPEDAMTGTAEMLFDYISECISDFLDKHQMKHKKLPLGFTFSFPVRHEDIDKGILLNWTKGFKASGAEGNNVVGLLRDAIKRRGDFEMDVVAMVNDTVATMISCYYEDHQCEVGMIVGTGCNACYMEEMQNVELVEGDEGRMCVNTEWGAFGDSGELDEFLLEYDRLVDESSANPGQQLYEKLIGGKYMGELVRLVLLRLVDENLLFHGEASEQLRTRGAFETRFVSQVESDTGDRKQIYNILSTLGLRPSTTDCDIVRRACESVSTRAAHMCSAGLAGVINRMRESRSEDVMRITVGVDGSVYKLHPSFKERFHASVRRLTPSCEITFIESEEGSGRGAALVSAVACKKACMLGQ
Description: GK enzyme reactions were performed in 50 mmol/L HEPES pH 7.4, 200 mmol/L KCl, 5 mmol/L MgCl2, 2 mmol/L DTT, containing 50 μmol/L 2′-(or -3′)-O—(N-methylanthraniloyl)adenosine 5′-triphosphate (Mant-ATP) (Jena Bioscience GmbH), 5 mmol/L D-glucose, 5% DMSO and 6 μg/mL GST-hLGK1 obtained in Reference Example 2A in a total volume 50 μL. The reactions were performed in 384 well black plates (Nalge Nunc International K.K.). Prior to the reaction, the enzyme and test compound were incubated for 10 min at 37° C., and 25 mM D-glucose solution (10 μL) was added to start the reaction.
After the incubation for 60 min at 37° C., the reaction was quenched by adding 25 μL of a quenching solution (containing 200 mM HEPES (pH 7.4), 20 mM MgCl2, 200 mM EDTA, 0.03% Triton-X 100, 0.3% Coating 3 reagent (Caliper Life Sciences, Inc.)).
Mant-ATP (substrate, 2′- (or -3′)-O—(N-methylanthraniloyl) adenosine 5′-triphosphate) and Mant-ADP (reaction resultant product) were separated from each well after the reaction by a microchip type capillary electrophoresis apparatus 250 HTS (Caliper Life Sciences, Inc.). The reaction rate [(reaction resultant product peak height)/(reaction resultant product peak height+substrate peak height)×100(%)] was calculated from the ratio of the substrate peak height and reaction resultant product peak height obtained by fluorescence detection (excitation wavelength 355 nm, measurement wavelength 460 nm) and used as the index of GK activity.
As a control group, the reaction rate was calculated in the same manner as above without the test compounds.
The percentage obtained by dividing the reaction rate of the well added with each concentration of the test compound (test compound addition group) by the reaction rate of the control group was taken as the GK activity value, and the concentration of the test compound at the midpoint between the maximum activity value of the test compound addition group and the control group activity value is shown as EC50 value.

Row | SMILES | EC50 [1] [nM] | melting point [°C]
1 | COCCNC(=O)CC1CN=C(c2cc3cc(Oc4ccc(S(C)(=O)=O)nc4)cc(OC)c3[nH]2)S1 (stereo not drawn) [Example 78, N-(2-Methoxyethyl)-2-[2-(7-methoxy-5-{[6-(methylsulfonyl)pyridin-3-yl]oxy}-1H-indol-2-yl)-4,5-dihydro-1,3-thiazol-5-yl]acetamide] | 37 | 175 to 176
2 | Cn1ccnc1COc1cc(Oc2ccc(S(C)(=O)=O)cc2)cc2cc(C3=NCC(CC(N)=O)S3)[nH]c12 (stereo not drawn) [Example 11, 2-(2-{7-[(1-Methyl-1H-imidazol-2-yl)methoxy]-5-[4-(methylsulfonyl)phenoxy]-1H-indol-2-yl}-4,5-dihydro-1,3-thiazol-5-yl)acetamide] | 52 | 130 to 131
3 | COc1cc(Oc2ccc(S(C)(=O)=O)nc2)cc2cc(C3=NCC(CC(=O)NC[C@@H](C)O)S3)[nH]c12 (stereo partly drawn) [Example 81, N-[(2R)-2-Hydroxypropyl]-2-[2-(7-methoxy-5-{[6-(methylsulfonyl)pyridin-3-yl]oxy}-1H-indol-2-yl)-4,5-dihydro-1,3-thiazol-5-yl]acetamide] | 38 | 185 to 186
4 | CC(CO)Oc1cc(Oc2ccc(S(C)(=O)=O)cc2)cc2cc(C3=NCC(CCO)S3)[nH]c12 (stereo not drawn) [Example 16, 2-({2-[5-(2-Hydroxyethyl)-4,5-dihydro-1,3-thiazol-2-yl]-5-[4-(methylsulfonyl)phenoxy]-1H-indole-7-yl}oxy)propan-1-ol] | 33 | 165 to 169

Second part, the compound after the results:

Row | EC50 [1] [nM] | melting point [°C] | SMILES
5 | 55 | 218 to 219 | CS(=O)(=O)c1ccc(Oc2cc(OCc3ccccc3)c3[nH]c(C4=NCC(CC(=O)O)S4)cc3c2)cc1 (stereo not drawn) [Example 3, (2-{7-(Benzyloxy)-5-[4-(methylsulfonyl)phenoxy]-1H-indol-2-yl}-4,5-dihydro-1,3-thiazol-5-yl)acetic acid]
6 | 44 | 104 to 105 | CS(=O)(=O)c1ccc(Oc2cc(OCC3CCOCC3)c3[nH]c(C4=NCC(CCO)S4)cc3c2)cc1 (stereo not drawn) [Example 19, 2-(2-{5-[4-(Methylsulfonyl)phenoxy]-7-(tetrahydro-2H-pyran-4-ylmethoxy)-1H-indol-2-yl}-4,5-dihydro-1,3-thiazol-5-yl)ethanol]
